Reference: patent US10300071B2, “Compositions and methods for inhibition of mycobacteria” (priority 2014, dated 2019)
Converted amounts (≈) assume the structure as drawn. Read-outs that look alike come from different tables or passages of the source.

Tests used:
Mtb AccD6 = Mtb AccD6 (Mycobacterium tuberculosis, UniProt P9WQH5); experiment: biochemical; format: biochemical; details: for IC50: 300 μM malonyl-CoA, inhibitor 10 μM to 2000 μM; for inhibition at 20 µM: read-out: inhibition at 20 uM; for Mtb AccD6 inhibition: preliminary studies of commercially available herbicides
Mtb strain mc^2-7000 = experiment: microbe, parasite or virus in culture; format: cell-based, Mycobacterium tuberculosis; details: for MIC: 6 days incubation at 37° C., resazurin, read on the 7th day; for whole Mycobacterium tuberculosis cell inhibition: preliminary studies of commercially available herbicides
[1] = Mycobacterium tuberculosis, 144 h, read-out: MIC

Mtb AccD6, sequence (P9WQH5 whole entry, looked up): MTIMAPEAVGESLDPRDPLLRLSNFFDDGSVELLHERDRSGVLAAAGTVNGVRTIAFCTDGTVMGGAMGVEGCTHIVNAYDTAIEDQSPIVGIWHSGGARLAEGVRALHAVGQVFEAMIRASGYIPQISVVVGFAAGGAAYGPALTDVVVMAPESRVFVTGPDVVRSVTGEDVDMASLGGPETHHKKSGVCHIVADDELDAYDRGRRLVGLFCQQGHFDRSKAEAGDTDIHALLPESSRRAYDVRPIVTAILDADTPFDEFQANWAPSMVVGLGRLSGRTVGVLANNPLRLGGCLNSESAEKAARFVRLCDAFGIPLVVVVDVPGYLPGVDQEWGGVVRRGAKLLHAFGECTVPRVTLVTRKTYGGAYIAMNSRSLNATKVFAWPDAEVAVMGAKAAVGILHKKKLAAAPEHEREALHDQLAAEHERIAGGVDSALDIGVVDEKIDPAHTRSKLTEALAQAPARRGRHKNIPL

Compound | MIC (Mtb strain mc^2-7000; [1]) [µM] | concentrations at which not toxic, s. cerevisiae cytotoxicity (S. cerevisiae) [µM] | IC50 (Mtb AccD6; read-out: IC50) [nM] | other results
NCc1ccc(Oc2nc3ccc(Cl)cc3s2)cc1 [NZ-348, {4-[(6-chloro-1,3-benzothiazol-2-yl)oxy]phenyl}methanamine] | 2 (≈ 0.582 µg/mL) | 25 to 50 |  | IC50 (Mtb AccD6): Not Active
CC(C)NC(=O)Nc1ccc(Oc2nc3ccc(Br)cc3s2)cc1 [NZ-359, 1-{4-[(6-bromo-1,3-benzothiazol-2-yl)oxy]phenyl}-3-(propan-2-yl)urea] | > 50 | ≥ 100 | 8400 | 
Nc1ccc(Oc2nc3ccc(Cl)cc3s2)cc1 [NZ-352, 4-[(6-chloro-1,3-benzothiazol-2-yl)oxy]aniline] | 1.5 (≈ 0.415 µg/mL) | 25 to 50 |  | IC50 (Mtb AccD6): Not Active
CNC(=O)Nc1ccc(Oc2nc3ccc(Cl)cc3s2)cc1 [NZ-353, 1-{4-[(6-chloro-1,3-benzothiazol-2-yl)oxy]phenyl}-3-methylurea] |  | ≥ 100 | 4000 | MIC (Mtb strain mc^2-7000): Not Active
COC(=O)C(OC)c1ccc(Oc2nc3ccc(Cl)cc3s2)cc1 (stereo not drawn) [NZ-355, methyl 2-{4-[(6-chloro-1,3-benzothiazol-2-yl)oxy]phenyl}-2-methoxyacetate] | 4.5 (≈ 1.64 µg/mL) | ≥ 100 | 20000 | 
CC(C)(C)OC(=O)NCc1ccc(Oc2nc3ccc(Cl)cc3s2)cc1 [NZ-347, tert-butyl N-({4-[(6-chloro-1,3-benzothiazol-2-yl)oxy]phenyl}methyl)carbamate] | 15 (≈ 5.86 µg/mL) | ≥ 100 |  | IC50 (Mtb AccD6): Not Active
Clc1ccc2nc(Oc3ccccc3)sc2c1 [NZ-292, 6-chloro-2-phenoxy-1,3-benzothiazole] | 12 (≈ 3.14 µg/mL) |  |  | inhibition at 20 µM (Mtb AccD6): 42%
NC(=O)COc1ccc(Oc2cnc3cc(Cl)ccc3n2)cc1 [NZ-258, 2-{4-[(6-chloroquinoxalin-2-yl)oxy]phenoxy}acetamide] | 50 (≈ 16.5 µg/mL) |  | 2100 to 3100 | 
CC(C)NC(=O)Cc1ccc(Oc2nc3cc(F)c(F)cc3s2)cc1O [NZ-407, 2-{4-[(5,6-difluoro-1,3-benzothiazol-2-yl)oxy]-2-hydroxyphenyl}-N-(propan-2-yl)acetamide] | 11.7 (≈ 4.43 µg/mL) |  | 110 | 
CONC(=O)Nc1ccc(Oc2cnc3cc(Cl)ccc3n2)cc1 [NZ-344, 1-{4-[(6-chloroquinoxalin-2-yl)oxy]phenyl}-3-methoxyurea] | 25 (≈ 8.62 µg/mL) |  | 4100 | 
O=C(O)CCc1ccc(Oc2nc3ccc(Cl)cc3s2)cc1 [NZ-282, 3-{4-[(6-chloro-1,3-benzothiazol-2-yl)oxy]phenyl}propanoic acid] |  |  |  | inhibition at 20 µM (Mtb AccD6): 40%; MIC (Mtb strain mc^2-7000): Not Active
CCC/C(=N\OCC)C1=C(O)CC(CC(C)SCC)CC1=O (stereo not drawn) [sethoxydim, reference compound] |  |  |  | Mtb AccD6 inhibition (Mtb AccD6): only haloxyfop exhibited Mtb AccD6 inhibition; whole Mycobacterium tuberculosis cell inhibition (Mtb strain mc^2-7000): none exhibited whole Mycobacterium tuberculosis cell inhibition
CONC(=O)C(OC)c1ccc(Oc2nc3ccc(Cl)cc3s2)cc1 (stereo not drawn) [NZ-357, 2-{4-[(6-chloro-1,3-benzothiazol-2-yl)oxy]phenyl}-N,2-dimethoxyacetamide] | 20 (≈ 7.58 µg/mL) | ≥ 100 | 3600 | 
CC(Oc1ccc(Oc2ccc(C(F)(F)F)cn2)cc1)C(=O)O (stereo not drawn) [fluazifop, reference compound] |  |  |  | Mtb AccD6 inhibition (Mtb AccD6): only haloxyfop exhibited Mtb AccD6 inhibition; whole Mycobacterium tuberculosis cell inhibition (Mtb strain mc^2-7000): none exhibited whole Mycobacterium tuberculosis cell inhibition
CCCC(=NOCC)C1=C(O)CC(C2CCCSC2)CC1=O (stereo not drawn) [cycloxydim, reference compound] |  |  |  | Mtb AccD6 inhibition (Mtb AccD6): only haloxyfop exhibited Mtb AccD6 inhibition; whole Mycobacterium tuberculosis cell inhibition (Mtb strain mc^2-7000): none exhibited whole Mycobacterium tuberculosis cell inhibition
N#CCOc1ccc(Oc2cnc3cc(Cl)ccc3n2)cc1 [NZ-263, 2-{4-[(6-chloroquinoxalin-2-yl)oxy]phenoxy}acetonitrile] | > 50 |  | 7800 | 
CC(C)(C)OC(=O)Nc1ccc(Oc2nc3ccc(Cl)cc3s2)cc1 [NZ-351, tert-butyl N-{4-[(6-chloro-1,3-benzothiazol-2-yl)oxy]phenyl}carbamate] |  | ≥ 100 |  | IC50 (Mtb AccD6): Not Active; MIC (Mtb strain mc^2-7000): Not Active
CN(C)C(=O)NCc1ccc(Oc2nc3ccc(Cl)cc3s2)cc1 [NZ-349, 1-({4-[(6-chloro-1,3-benzothiazol-2-yl)oxy]phenyl}methyl)-3,3-dimethylurea] | 8 (≈ 2.89 µg/mL) | ≥ 100 | 7000 | 
CN(C)C(=O)Nc1ccc(Oc2nc3ccc(Cl)cc3s2)cc1 [NZ-354, 1-{4-[(6-chloro-1,3-benzothiazol-2-yl)oxy]phenyl}-3,3-dimethylurea] | 1 (≈ 0.348 µg/mL) | 50 to 100 | 7300 | 

Compound | MIC (Mtb strain mc^2-7000; [1]) [µM] | concentrations at which not toxic, s. cerevisiae cytotoxicity (S. cerevisiae) [µM] | IC50 (Mtb AccD6; read-out: IC50) [nM] | other results
CNC(=O)NCc1ccc(Oc2nc3ccc(Cl)cc3s2)cc1 [NZ-350, 1-({4-[(6-chloro-1,3-benzothiazol-2-yl)oxy]phenyl}methyl)-3-methylurea] |  | ≥ 100 | 1600 | MIC (Mtb strain mc^2-7000): Not Active
CN(C)C(=O)COc1ccc(Oc2cnc3cc(Cl)ccc3n2)cc1 [NZ-262, 2-{4-[(6-chloroquinoxalin-2-yl)oxy]phenoxy}-N,N-dimethylacetamide] | > 25 |  | 1800 | 
CC(O)COc1ccc(Oc2cnc3cc(Cl)ccc3n2)cc1 (stereo not drawn) [NZ-264, 1-{4-[(6-chloroquinoxalin-2-yl)oxy]phenoxy}propan-2-ol] | > 12.5 |  | 3400 | 
CC(C)NC(=O)Cc1ccc(O)cc1Oc1nc2ccc(F)cc2s1 [NZ-406, 2-{2-[(6-fluoro-1,3-benzothiazol-2-yl)oxy]-4-hydroxyphenyl}-N-(propan-2-yl)acetamide] |  |  |  | IC50 (Mtb AccD6): Not Active; % at 50 uM (Mtb strain mc^2-7000): 46% at 50 uM
O=C(COc1ccc(Oc2cnc3cc(Cl)ccc3n2)cc1)NO [NZ-286, 2-{4-[(6-chloroquinoxalin-2-yl)oxy]phenoxy}-N-hydroxyacetamide] | 3 (≈ 1.04 µg/mL) |  | 1400 | 
CC(C)NC(=O)Nc1ccc(Oc2nc3ccccc3s2)cc1 [NZ-360, 1-[4-(1,3-benzothiazol-2-yloxy)phenyl]-3-(propan-2-yl)urea] | 4.3 (≈ 1.41 µg/mL) | ≥ 100 | 13300 | 
COC(C(=O)O)c1ccc(Oc2nc3ccc(Cl)cc3s2)cc1 (stereo not drawn) [NZ-356, 2-{4-[(6-chloro-1,3-benzothiazol-2-yl)oxy]phenyl}-2-methoxyacetic acid] | 25 (≈ 8.74 µg/mL) | ≥ 100 | 1700 | 
CNC(=O)C(C)c1ccc(Oc2nc3ccc(F)cc3s2)cc1O (stereo not drawn) [NZ-408, 2-{4-[(6-fluoro-1,3-benzothiazol-2-yl)oxy]-2-hydroxyphenyl}-N-methylpropanamide] | 6.5 (≈ 2.25 µg/mL) |  | 210 | 
CN1CCN(C(=O)COc2ccc(Oc3cnc4cc(Cl)ccc4n3)cc2)CC1 [NZ-278, 2-{4-[(6-chloroquinoxalin-2-yl)oxy]phenoxy}-1-(4-methylpiperazin-1-yl)ethan-1-one] | 3.1 (≈ 1.28 µg/mL) |  | 1100 | 
COC(=O)CCc1ccc(Oc2nc3ccc(Cl)cc3s2)cc1 [NZ-280, methyl 3-{4-[(6-chloro-1,3-benzothiazol-2-yl)oxy]phenyl}propanoate] | 6 (≈ 2.09 µg/mL) |  |  | inhibition at 20 µM (Mtb AccD6): 50%
CC(C)NC(=O)Cc1ccc(Oc2nc3cc(F)c(F)cc3s2)cc1 [NZ-403, 2-{4-[(5,6-difluoro-1,3-benzothiazol-2-yl)oxy]phenyl}-N-(propan-2-yl)acetamide] | 1.24 (≈ 0.449 µg/mL) |  | 160 | 
CC(C(=O)NCC(O)CO)c1ccc(Oc2nc3ccc(Cl)cc3s2)cc1 (stereo not drawn) [NZ-372, 2-{4-[(6-chloro-1,3-benzothiazol-2-yl)oxy]phenyl}-N-(2,3-dihydroxypropyl)propanamide] | 4.67 (≈ 1.9 µg/mL) | ≥ 100 | 2750 | 
cyhalofop [reference compound] |  |  |  | Mtb AccD6 inhibition (Mtb AccD6): only haloxyfop exhibited Mtb AccD6 inhibition; whole Mycobacterium tuberculosis cell inhibition (Mtb strain mc^2-7000): none exhibited whole Mycobacterium tuberculosis cell inhibition
COC(=O)/C=C/c1ccc(Oc2nc3ccc(Cl)cc3s2)cc1 [NZ-281, methyl (2E)-3-{4-[(6-chloro-1,3-benzothiazol-2-yl)oxy]phenyl}prop-2-enoate] | 50 (≈ 17.3 µg/mL) |  |  | inhibition at 20 µM (Mtb AccD6): 30%
Cn1nnnc1COc1ccc(Oc2cnc3cc(Cl)ccc3n2)cc1 [NZ-270, 6-chloro-2-{4-[(1-methyl-1H-1,2,3,4-tetrazol-5-yl)methoxy]phenoxy}quinoxaline] | > 50 |  | 9700 | 
CN(O)C(=O)COc1ccc(Oc2cnc3cc(Cl)ccc3n2)cc1 [NZ-279, 2-{4-[(6-chloroquinoxalin-2-yl)oxy]phenoxy}-N-hydroxy-N-methylacetamide] | > 50 |  | 800 | 
CC(C)NC(=O)Cc1ccc(Oc2nc3ccc(F)cc3s2)cc1O [NZ-405, 2-{4-[(6-fluoro-1,3-benzothiazol-2-yl)oxy]-2-hydroxyphenyl}-N-(propan-2-yl)acetamide] | 17.5 (≈ 6.31 µg/mL) |  | 150 | 
O=C(COc1ccc(Oc2cnc3cc(Cl)ccc3n2)cc1)N1CCOCC1 [NZ-266, 2-{4-[(6-chloroquinoxalin-2-yl)oxy]phenoxy}-1-(morpholin-4-yl)ethan-1-one] | > 12.5 |  | 990 | 
CC(C)NC(=O)Cn1ccc(Oc2nc3ccc(Cl)cc3s2)cc1=O [NZ-404, 2-{4-[(6-chloro-1,3-benzothiazol-2-yl)oxy]-2-oxo-1,2-dihydropyridin-1-yl}-N-(propan-2-yl)acetamide] |  |  | 14400 | % at 50 uM (Mtb strain mc^2-7000): 38% at 50 uM
